Test results from patent US10220025B1, “Self-emulsifying formulation of CARP-1 functional mimetics” (Florida A&M University, priority 2016, dated 2019).
Entries after “also recorded” stand apart in the source; their conditions may differ. Read-outs that look alike come from different tables or passages of the source.

What was measured:
[1] = system: TNBC and NSCLC cells; conditions: cited from earlier work
[2] = system: MDA-MB-468 TNBC cells, wild type; assay: MTT viability assay, parental MDA-MB-468; type: cell-based, human; conditions: for inhibition of viability compared with CFM-4: 20 μM, 24 h, FIG. 3A
Experimental: (§2) In vitro inhibition of cell growth was assessed by MTT (3-[4, 5-dimethyltiazol-2-yl]-2.5-diphenyl tetrazolium bromide) reagent. Cells (5×10^3) were seeded in a 96-well culture plate and subsequently treated with respective agents at different concentrations as mentioned. Control cells were treated with 0.1% DMSO in culture medium. After treatment, the cells were incubated with 1 mg/ml of MTT reagent at 37° C. for 2-4 hours and then MTT was removed and 50 μL of DMSO was added, followed by colorimetric analysis using a multi-label plate reader at 560 nm (Victor3; PerkinElmer, Wellesley, Mass., USA).

[3] = system: HeLa cervical cancer cells; assay: MTT viability assay, HeLa; type: cell-based; conditions: 20 μM; 24 h; FIG. 3A
Source text: The current inventors' previous studies have indicated cancer cell growth inhibitory properties of CFMs in particular CFM-4 and CFM-5 [Puliyappadamba et al.]. […] J. Biomed. Nanotechnol. 2015; 11:1608-1627]. […] J. Biomed. Nanotechnol. 2015; 11:1608-1627]. On the basis of these findings, it was speculated that solubility and/or potency of the CFM-4 scaffold could be improved for its utility as a novel anti-TNBC molecule. To address this possibility, twelve (12) additional analogs of CFM-4 (Table 2) were synthesized using medicinal chemistry based structure activity relationship (SAR) studies. Each of the analog was suspended in DMSO, and their potency was evaluated in cell culture studies utilizing HeLa cervical cancer, MDA-MB-468 TNBC, and H2461 malignant pleural mesothelioma (MPM) cells by MTT based assays. […] Moreover, a 10 μM dose of CFM-4 inhibited MDA-MB-231 and MDA-MB-468 viabilities by ˜30% and 45%, respectively.

[4] = system: TNBC cells; assay: MTT viability assay, parental TNBC cells (lines not singled out); type: cell-based
Experimental: as §2

[5] = system: Src, MET, and STAT3 kinases in TNBC cells; assay: Western blot, oncogenic tyrosine kinases; type: cell-based; conditions: parental and drug-resistant human and murine TNBC cells
Experimental: For protein expression analysis, Western blot (WB) experiments were performed according to the standard procedures. The cells were either untreated or treated with various agents either alone or in combinations as indicated. Following treatment durations, the cells were lysed in cell lysis (10×) buffer (#9803; cell signaling) containing 0.1% of protease and phosphatase inhibitor cocktail (Sigma) for 20 min at 4° C. The lysates were centrifuged at 14,000 rpm at 4° C. for 15-20 min to remove debris. Protein concentrations of whole cell lysates were determined using the Protein Assay Kit. Supernatant proteins, 50-100 μg from each sample, were separated by SDS-polyacrylamide gel electrophoresis (SDS-PAGE) and transferred to polyvinylidene difluoride (PVDF) membrane (Bio-rad, Hercules, Calif.) by standard procedures. […] The antibody-bound proteins were visualized by treatment with the chemiluminescence detection reagent according to manufacturer's instructions, followed by exposure to X-ray film (Denville Scientific Inc.). The same membranes were re-probed with the anti-β-actin or anti-α-tubulin antibody, which was used as an internal control for protein loading.

[6] = system: parental and drug-resistant TNBC and SKBR-3 cells; assay: scratch/wound healing cell migration assay; type: cell-based; conditions: FIGS. 11B, 11C, 12A, 12B, 13A, 13B
Experimental: The TNBC cells migration in the absence or presence of CFMs was measured by the “scratch/wound healing” assay. Cells were seeded in a 6-well plate (˜10,000 cells/well), and when attached, a scratch was created in the cell monolayer using sterile pipette tip. The cells were then allowed to continue growing in the absence (Control) or presence of noted dose of each of the agents for indicated time periods. The cells were photographed at the beginning and at regular intervals during the treatment period, and the images from control cells were compared with the treated cells to determine the migration of the cells essentially as described before [Liang C C, Park A Y, Guan J L In vitro scratch assay: a convenient and inexpensive method for analysis of cell migration in vitro. Nat Protoc. 2007; 2:329-33]. The photomicrographs of the cells were recorded under different magnifications utilizing Zeiss microscope with attached 35 mm camera.

[7] = solubility observations; type: physicochemical
[8] = system: parental and drug-resistant TNBC and SKBR-3 cells; assay: soft-agar clonogenic assay; type: cell-based; conditions: 10 μM; FIGS. 11D, 12C, 12D, 13C
Experimental: A soft-agar sandwich assay was performed. Cells were sandwiched between 0.6% and 0.3% agarose in DMEM medium containing 5% FBS in a six-well chamber (500 cells/chamber), and treated with buffer (Control), or respective agent for noted time and dose at 37° C. humidified CO2 incubator. The colonies from multiple random fields were counted, compared to control and photographed essentially as described before [Jamal S, Cheryan V T, Muthu M, Munie S, Levi E, Ashour A E, Pass H I, Wali A, Singh M, Rishi A K. CARP-1 functional mimetics are a novel class of small molecule inhibitors of malignant pleural mesothelioma cells. PLos One. 2014; 9:e891; Ashour A E, Jamal S, Cheryan V T, Muthu M, Zoheir K M A, Alafeefy A M, Abd-allah A R, Levi E, Tarca A L, Polin L A, Rishi A K. CARP-1 functional mimetics: A novel class of small molecule inhibitors of medulloblastoma cell growth. PLoS One. 2013; 8:e66733; Zhang L, Levi E, Majumder P, Yu Y, Aboukameel A, Du J, Xu H, Mohammad R M, Hatfield J S, Wali A, Adsay V, Majumdar A P N, Rishi A K. Transactivator of transcription tagged cell cycle and apoptosis regulatory protein-1 peptides suppress growth of human breast cancer cells in vitro and in vivo. Mol Cancer Ther. 2007; 6:1661-1672].

[9] = system: HUVECs; assay: in vitro tubule formation (angiogenesis) assay; type: cell-based, human; conditions: 12 hours; FIG. 11A
Experimental: The growth of tubules was monitored over a period of 12 hours. The cells growth in the scratch assay was recorded by photography. Representative photomicrographs of control and treated cells are presented.
It was next investigated whether CFM-4.16 inhibited TNBC cell migration and growth as colonies in soft agar and 3-dimensional cultures in vitro. In addition, an in vitro tubule formation assay was conducted to determine anti-angiogenic properties of CFM-4.16. […] Moreover, treatments with CFM-4 or CFM-4.16 prevented the parental as well as drug (ADR- or cisplatin-) resistant TNBC sublines and the parental and Herceptin-resistant, Her-2-positive SKBR-3 cells from growing in the areas of wound caused by a scratch (FIGS. 11B, 11C, 12A, 12B, 13A, and 13B).

[10] = system: TNBC and non-small cell lung cancer cell-derived xenografts; conditions: SCID mice; cited from earlier work
[11] = system: MDA-MB-231 TNBC cells, wild type; assay: MTT viability assay, parental MDA-MB-231; type: cell-based, human
Experimental: as §2

[12] = system: Adriamycin-resistant (ADR-R) MDA-MB-468 sublines; assay: MTT viability assay, ADR-resistant MDA-MB-468 sublines; type: cell-based, human; conditions: ADR-resistant MDA-MB-468 subline 1; FIG. 5E
Experimental: (§1) Human TNBC MDA-MB-468 and MDA-MB-231, and mouse TNBC 4T1 cells were cultured in the chronic presence (>10 months) of Doxorubicin. The parental, wild-type cells were initially treated with 200 nM Doxorubicin for 2-3 weeks, followed by escalation to 400 nM, 1 μM, and 2 μM doses over a period of 3-4 weeks for each dose till resistance developed and the cells became well adapted to growth in […] of Doxorubicin for their routine culture. In the case of Cisplatin however, the human TNBC MDA-MB-468 and MDA-MB-231 were initially cultured in continuous presence of 1 μM Cisplatin for 3-4 weeks, and the dose was escalated to 1.5 μM and 3 μM over periods of 3-4 weeks for each dose till resistance developed and cells became adapted to routine culture in 3 μM dose. Subsequent, routine maintenance of the resistant cells in the presence of the respective drug was continued and multiple, resistant sublines for each of the TNBC cells were isolated and characterized for their growth inhibitory (GI)50 dose of respective therapeutic by the MTT-based viability assays as below.

[13] = system: Cisplatin-resistant (Cis-R) MDA-MB-231 sublines; assay: MTT viability assay, Cisplatin-resistant MDA-MB-231 sublines; type: cell-based, human
Experimental: as §1

[14] = system: Cisplatin-resistant (Cis-R) MDA-MB-468 sublines; assay: MTT viability assay, Cisplatin-resistant MDA-MB-468 sublines; type: cell-based, human
Experimental: as §1

[15] = system: 4T1 TNBC cells, wild type; assay: MTT viability assay, parental 4T1; type: cell-based, mouse; conditions: FIG. 10; single agent
Experimental: as §2

[16] = system: parental and drug-resistant human TNBC cells; conditions: human, 12 h
Experimental: Control cells were treated with 0.1% DMSO in culture medium.

## O=C1N(Cc2cccc3ccccc23)c2ccccc2C12NN=C(c1ccccc1)S2 (stereo not shown) [CFM-4.6]
[1]
  growth of TNBC and NSCLC cells: inhibited growth

## O=C1N(Cc2ccc3ccccc3c2)c2ccccc2C12NN=C(c1ccccc1)S2 (stereo not shown) [CFM-4.8]
[2]
  inhibition of viability compared with CFM-4: greater inhibition of viability

## COc1ccc2c(c1)C1(NN=C(c3ccccc3)S1)C(=O)N2Cc1ccccc1Cl (stereo not shown) [CFM-4.11]
[2]
  inhibition of viability compared with CFM-4: greater inhibition of viability

## COc1cccc(C2=NNC3(S2)C(=O)N(Cc2ccccc2Cl)c2ccccc23)c1 (stereo not shown) [CFM-4.17]
[2]
  inhibition of viability compared with CFM-4: greater inhibition of viability
[3]
  inhibition of viability compared with CFM-4: greater inhibition of viability
[4]; SAR screen of twelve analogs
  activity relative to parent compound CFM-4 or other analogs: superior

## O=C1N(Cc2ccccc2Cl)c2ccccc2C12NN=C(c1ccccc1)S2 (stereo not shown) [CFM-4]
[5]
  activation and/or expression of MET and Src tyrosine kinases: reduced activation and/or expression
[6]
  growth of cells in the areas of wound caused by a scratch: prevented
[7]
  aqueous solubility: poor aqueous solubility
[2]; 10 μM dose
  inhibition / loss of cell viability: ~45%
[8]
  colonies formed in soft agar: significant reduction in size and number of colonies
[9]
  tubule formation by HUVECs compared with untreated control: disruption of tubule formation
[10]
  xenograft growth inhibition / T/C, intravenous DMSO+cremophor preparation: failed to inhibit growth; also recorded: lack therapeutic T/C values
[11]; 10 μM dose
  inhibition / loss of cell viability: ~30%
[1]
  growth of TNBC and NSCLC cells: inhibited growth
[12]
  effect of siRNA-mediated depletion of CARP-1 on growth inhibition by the compound: interfered with growth inhibition

## N.N.[Cl][Pt][Cl] [Cisplatin]
[13]; 72 h, Cis-R Clones 1-6, read-out: GI50
  GI50: ≥ 150 µM
[13]; cisplatin-resistant MDA-MB-231 vs parental
  GI50 dose higher than wild-type, parental counterparts: ≥ 90 fold
[13]; read-out: GI50 dose, Cisplatin-resistant MDA-MB-231 sublines
  GI50: ≥ 150 µM
[2]; 72 h, Wild type
  GI50: ~1650 nM
[14]; 72 h, Cis-R Clone 1-2, read-out: GI50
  GI50: ~6.6 µM
[14]; 72 h, Cis-R Clone 3, read-out: GI50
  GI50: ~12 µM
[14]; 72 h, Cis-R Clones 4-6, read-out: GI50
  GI50: ~15 µM
[14]; cisplatin-resistant MDA-MB-468 vs parental
  GI50 dose higher than wild-type, parental cells: 4-9 fold
[14]; read-out: GI50 dose, Cisplatin-resistant MDA-MB-468 sublines
  GI50: 6 to 15 µM
[11]; 72 h, Wild type
  GI50: ~1650 nM
[4]; 72 h treatment period, read-out: GI50 doses, both the parental TNBC cell lines
  GI50: ~1650 nM
[4]; parental cells, read-out: GI50 dose, parental cells
  GI50: 1650 nM

## Cc1nc(Nc2ncc(C(=O)Nc3c(C)cccc3Cl)s2)cc(N2CCN(CCO)CC2)n1 [Dasatinib]
[15]
  reduction / loss of viability: ~60%
[16]
  loss of viability, single agent: 20-40%

## O=C1NC(=O)[C@@H](c2cn3c4c(cccc24)CCC3)[C@@H]1c1c[nH]c2ccccc12 [Tivatinib]
[16]
  loss of viability, single agent: 20-40%
